The values below come from PubChem BioAssay AID624254 (Broad Institute, 2012).

The source made the active and inactive calls. How the calls were made is not given here.

The nature of the test: Luciferase light induction in v cholerae bh1651, agonist dose response, confirmatory (AID 624254). Conditions: V. cholerae BH1651 luxOD47E, luciferase light induction, 6 h; at 50 µM (top of the series).
For `COc1ccc(OCc2cn3c(C)cc(C)nc3n2)cc1`, the “activation (light increase)” value was “inactive”.
To `CCCCCn1c(SCC(=O)OCC)nc2cc(C(=O)N3CCC(C(N)=O)CC3)ccc2c1=O` belongs “inactive”.
Regarding `N#Cc1ccccc1NC(=O)CNc1ccccc1N1CCCCC1`, the “activation (light increase)” value is “inactive”.
To `O=C(COC(=O)/C=C/c1ccc(OC(F)F)cc1)NC1CCCCCC1` belongs “inactive”; to `COc1cc(SC)ccc1C(=O)OCC(=O)NCC(C)C`, “inactive”.
Regarding `Cc1ccc(S(=O)(=O)N2Cc3ccccc3CC2C(=O)Nc2ccc3c(c2)OCO3)cc1` (configuration not stated), the “activation (light increase)” value was “inactive”.
To `CCOC(=O)CNc1c(-c2ccc(Cl)cc2)nc2cnccn12` belongs “inactive”; to `COc1ccc(CCNC(=O)c2nnn(-c3ccc4c(c3)OCCO4)c2N)cc1OC`, “inactive”.
Then `C[C@H](CO)N1C[C@H](C)[C@@H](CN(C)S(=O)(=O)c2ccc(Cl)cc2)Oc2c(NC(=O)Nc3ccc4c(c3)OCO4)cccc2C1=O`, with “inactive”; and `CCC(C)NS(=O)(=O)c1ccc(S(=O)(=O)Nc2cc3c(cc2C(C)=O)OCO3)cc1` (configuration not stated), with “inactive”; and `Cc1ccc(C(=O)OCC(=O)NCCNC(=O)COC(=O)c2ccc(C)s2)s1`, with “inactive”.
As for `CCOC(=O)Cn1nc(C)n(-c2ccc(C(C)C)cc2)c1=O`, the “activation (light increase)” value is “inactive”.
To `COCCNC(=O)c1cnn2c1NC(c1ccco1)CC2C(F)(F)F` (configuration not stated) belongs “inactive”.
To `COC(=O)c1ccc(-c2nc3cc(Cl)c(N)cc3s2)cc1` belongs “inactive”; to `CCc1ccc(S(=O)(=O)Nc2ccc(Br)cn2)cc1`, “inactive”.
For the molecule `Cc1cccc(NC(=O)CSc2nc(=O)n(CCN3CCOCC3)c3c2CCCC3)c1C`, the “activation (light increase)” value was “inactive”.
Then `COc1cc(C(=O)Nc2ccc(NC(=O)C(C)C)nc2)cc(OC)c1OC`, with “inactive”; and `C[C@@H]1CN([C@H](C)CO)C(=O)c2cccc(NC(=O)Nc3ccc4c(c3)OCO4)c2O[C@@H]1CN(C)S(=O)(=O)c1ccccc1`, with “inactive”; and `Cc1ccc(OCC(=O)NC2CCS(=O)(=O)C2)c([N+](=O)[O-])n1` (configuration not stated), with “inactive”.
Then `CCn1c(SCC(=O)Nc2ccc3c(c2)OCCO3)nnc1-c1ccccn1`, with “inactive”; and `COc1ccc(-c2nnn(CC(=O)c3ccc4c(c3)OCCO4)n2)cc1OC`, with “inactive”.
To `CC1(C)NC(=O)N(CCOCCOc2ccc3ccccc3c2Br)C1=O` belongs “inactive”.
Turning to `COc1cccc(-c2nc(OC(C)C)c3ccccc3n2)c1`, the “activation (light increase)” value is “inactive”.
To `O=C(c1cc(-c2ccc3c(c2)OCO3)on1)N1CCN(c2ccc(F)cc2)CC1` belongs “inactive”.
As for `S=C(c1ccc(N2CCOCC2)cc1)N1CCCCC1`, the “activation (light increase)” value was “inactive”.
Then `Cc1cccc(OCC(=O)N(C)CCc2ccccn2)c1`, with “inactive”; and `CC(C#N)On1c(SC(C)C#N)nc2ccccc2c1=O` (configuration not stated), with “inactive”.
To `CCn1nnnc1NCc1ccc(N2CCCC2)cc1` belongs “inactive”; to `CCOCCCNC(=O)C(NC(=O)CNC(=O)c1ccccc1)c1ccccc1` (configuration not stated), “inactive”.
Regarding `CCCCNC(=O)Nc1cc(C)on1`, the “activation (light increase)” value was “inactive”.
As for `FC(F)Oc1ccccc1NC(=S)NCc1ccco1`, the “activation (light increase)” value was “inactive”.
Then `CCN1CCN(C(=O)c2ccc(COc3ccc(Cl)cc3)o2)CC1`, with “inactive”.
To `Cc1ccccc1NC(=O)Cc1nc(COC(=O)c2ccccn2)cs1` belongs “inactive”.
Then `CN(CC(=O)NCCN1CCOCC1)S(=O)(=O)c1ccc(Cl)cc1`, with “inactive”.
For the molecule `CCc1cc(C(=O)N2CCN(C(=O)c3ccccc3)CC2)sc1C`, the “activation (light increase)” value is “inactive”.
Then `CCc1cccc(C)c1N(C(=O)Cn1c(CO)nc2ccccc21)C(C)COC` (configuration not stated), with “inactive”.
To `CCCn1nnnc1NCc1ccc(SC)cc1` belongs “inactive”.
Regarding `O=c1c2cc(Br)ccc2nc(-c2cccc(C(F)(F)F)c2)n1O`, the “activation (light increase)” value was “inactive”.
To `CC1(C)Nc2ccc(O)cc2-c2c1ssc2=S` belongs “inactive”.
To `COc1ccccc1CNC(=O)c1ccc(S(=O)(=O)N(C)c2ccccc2)cc1` belongs “inactive”.
Then `CCC1C(=O)NCCN1C(=O)CCc1nnc(CCc2ccc(OC)cc2)o1` (configuration not stated), with “inactive”; and `COc1ccccc1N1CCN(CCCOc2ccc(F)cc2)CC1`, with “inactive”.
As to `C=Cn1c(C(=O)O)ccc1-c1cccs1`, the “activation (light increase)” value is “inactive”.
As to `O=C(NCc1ccc2c(c1)OCO2)C1CCCN1C(=O)Nc1cccc(Cl)c1` (configuration not stated), the “activation (light increase)” value was “inactive”.
Then `CCCCCn1nc(C(=O)N(CC(C)C)c2c(N)n(CCCC)c(=O)[nH]c2=O)c2ccccc2c1=O`, with “inactive”; and `Cc1cc(C(=O)OCC(=O)NC2CCCCC2)c(C)o1`, with “inactive”; and `CCOc1ccc2cc(C#N)c(SCC(=O)N3CCC(C)CC3)nc2c1`, with “inactive”.
To `O=C(O)CN1CCN(Cc2ccc(F)cc2Cl)C1=O` belongs “inactive”; to `O=C(CCc1nc(-c2ccccc2)no1)N1CCCC1`, “inactive”; to `O=C(Nc1cccc(-c2ccc(N3CCOCC3)nn2)c1)c1ccccc1Cl`, “inactive”.
For `CC(C)CCN1CC(C(=O)N2CCN(c3ccc(F)cc3)CC2)CC1=O` (configuration not stated), the “activation (light increase)” value is “inactive”.
Take `Cc1cccc(NC(=O)CS(=O)(=O)c2cn(C)c3ccccc23)c1C`: the “activation (light increase)” value was “inactive”.
For `COc1ccc(S(=O)(=O)N(C)C[C@H]2Oc3c(NC(=O)Nc4ccc5c(c4)OCO5)cccc3C(=O)N([C@H](C)CO)C[C@@H]2C)cc1`, the “activation (light increase)” value is “inactive”.
To `O=c1c2cc(N3CCOCC3)ccc2[nH]c(=S)n1CC1CCCO1` (configuration not stated) belongs “inactive”.
To `Cc1occc1-c1nnc(SCC(=O)NCc2cccs2)n1-c1ccc(F)cc1` belongs “inactive”; to `CN(CC(=O)Nc1ccccc1Cl)C(=O)c1cccc(-n2cccc2)c1`, “inactive”.
Then `Cc1cc(C(=O)CSc2nnc(-c3ccco3)o2)c(C)n1CC1COc2ccccc2O1` (configuration not stated), with “inactive”; and `COc1ccccc1NC(=O)CN1CCN(C(=O)C2CCCO2)CC1` (configuration not stated), with “inactive”; and `Cc1ccccc1-n1ccnc1SCC(=O)NCC1CCCO1` (configuration not stated), with “inactive”.
For `O=C(COC(=O)C1CCN(c2ccc(C(F)(F)F)cn2)CC1)NC1CCCCC1`, the “activation (light increase)” value was “inactive”.
Then `O=C(CNc1cc(S(=O)(=O)N2CCOCC2)ccc1N1CCCC1)Nc1ccc(Cl)cc1`, with “inactive”.
To `Cc1ccc(SCc2nc(-c3cccnc3)no2)cc1` belongs “inactive”.
To `O=C(c1cccc(S(=O)(=O)N2CCc3ccccc32)c1)N1CCOCC1` belongs “inactive”.
On to `Cc1ccccc1C(=O)Nc1cccc(N)c1`, for which the “activation (light increase)” value was “inactive”.
For the molecule `Nc1nnc(-c2ccc(Cl)cc2Cl)s1`, the “activation (light increase)” value is “inactive”.
For the molecule `Cc1cc(=O)oc2ccc(OCc3ccccc3)cc12`, the “activation (light increase)” value is “inactive”.
To `COc1ccc(OCC(=O)NC2CCCN(Cc3ccc(Cl)cc3)C2)cc1` (configuration not stated) belongs “inactive”; to `CC(C)N1CCc2c(sc(NC(=O)c3ccc4ccccc4c3)c2C(N)=O)C1`, “inactive”; to `CCc1ccc2c(c1)c1nnc(NN)nc1n2CC`, “inactive”.
Regarding `O=C(O)c1[nH]c2ccccc2c1NS(=O)(=O)Cc1ccccc1`, the “activation (light increase)” value is “inactive”.
To `COc1ccc(NC(=O)C(=O)NCC2CCCN2S(=O)(=O)c2ccc(C)cc2)cc1` (configuration not stated) belongs “inactive”; to `CCc1nnc(NC(=O)C2CC(=O)N(c3ccc(C)cc3)C2)s1` (configuration not stated), “inactive”; to `COc1ccc(Cl)cc1NC(=O)COC(=O)c1ccc(C)o1`, “inactive”.
To `Cc1ccc(C(=O)OCC(=O)NC2CCCC2)cc1` belongs “inactive”.
Then `Cc1ccc(S(=O)(=O)Nc2cc(C(=O)NCCN(C)C)ccc2N2CCCCC2)cc1`, with “inactive”.
In the case of `COc1cc(SC)ccc1C(=O)OCC(=O)NC1CCCC1`, the “activation (light increase)” value was “inactive”.
For `Cc1cccc(NC(=O)c2ccc(Oc3ccccc3)cc2)n1`, the “activation (light increase)” value is “inactive”.
Then `CC1CCCN(C(=O)c2ccc3c(=O)n(Cc4ccc5c(c4)OCO5)c(=S)[nH]c3c2)C1` (configuration not stated), with “inactive”.
To `COc1ccccc1CCN1CCCC(CN(C)C(=O)c2ccco2)C1` (configuration not stated) belongs “inactive”; to `Cn1cnc(S(=O)(=O)Nc2ccc(Oc3ccccc3)cc2)c1`, “inactive”; to `CCN(CC(=O)NCc1ccc(Cl)cc1)C(=O)CSc1ccccc1`, “inactive”.
In the case of `CC(=O)Nc1nonc1NC(C)=O`, the “activation (light increase)” value is “inactive”.
Then `COc1ccccc1NC(=O)COC(=O)c1cc2c(s1)CCC2`, with “inactive”.
Then `CC1CN(C(=O)COC(=O)c2cccc(NS(=O)(=O)c3ccccc3)c2)CC(C)O1` (configuration not stated), with “inactive”; and `CN(C)c1nc(N)ncc1-c1ccc(Oc2ccccc2)cc1`, with “inactive”.
For `CNC(=O)c1cc2cc(OC)ccc2n1CCN(Cc1ccccc1)Cc1ccccc1`, the “activation (light increase)” value was “inactive”.
Then `Cc1cccc(C(=O)NCC(c2cccs2)N2CCOCC2)c1` (configuration not stated), with “inactive”.
